Earlier results as cited in patent publication US20070003591A1, “USE OF A PROPOLIS AS A COATING MATERIAL FOR MEDICAL IMPLANTS” (priority 2005, published 2007).

Assays:
[1] = tested on: transcription factor FKB in T cells; details: Márquez et al. 2004
[2] = tested on: transcription factor FKB in human breast cancer cells of the type MCF-7; details: MCF-7 cells; Watabe et al. 2004

## O=C(/C=C/c1ccc(O)c(O)c1)OCCc1ccccc1 [caffeic acid phenylethyl ester]
[1]
  inhibitor of the transcription factor FKB: inhibitor
[2]
  inhibitor of the transcription factor FKB: inhibitor
